PubChem BioAssay (NCI)
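Dose response: 5 concentrations. Exposure: 48 h. Format: 96-well plates. Endpoint: linear interpolation; highest concentration if not reached. GI50 is the concentration that inhibits growth by half. At the TGI there is no net growth.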

Legend:
Test in all cases: inhibition of tumour cell growth, NCI panel, 48 h
HCT-116 colon = system: HCT-116 colon
UACC-62 melanoma = system: UACC-62 melanoma
NCI-H226 lung = system: NCI-H226 lung
CCRF-CEM leukemia = system: CCRF-CEM leukemia
MCF7 breast = system: MCF7 breast
MDA-MB-435 = system: MDA-MB-435
A549 NSCLC = system: A549 NSCLC
A498 renal = system: A498 renal
HCC-2998 colon = system: HCC-2998 colon
RXF 393 renal = system: RXF 393 renal
SF-268 CNS = system: SF-268 CNS

SMILES	TGI (HCT-116 colon) [µM]	TGI (UACC-62 melanoma) [µM]	TGI (NCI-H226 lung) [µM]	TGI (CCRF-CEM leukemia) [µM]	TGI (MCF7 breast) [µM]	TGI (MDA-MB-435) [µM]	TGI (A549 NSCLC) [µM]	TGI (A498 renal) [µM]	TGI (HCC-2998 colon) [µM]	TGI (RXF 393 renal) [µM]	TGI (SF-268 CNS) [µM]	GI50 (UACC-62 melanoma) [µM]	GI50 (NCI-H226 lung) [µM]	GI50 (RXF 393 renal) [µM]	GI50 (CCRF-CEM leukemia) [µM]	GI50 (HCC-2998 colon) [µM]	GI50 (MDA-MB-435) [µM]	GI50 (A549 NSCLC) [µM]	GI50 (A498 renal) [µM]	GI50 (SF-268 CNS) [µM]
CC(C)(C)N(Cc1ccc2c(c1)OCO2)C(=O)/C=C\Sc1ccccc1	> 100	> 100	> 100	> 100	> 100	> 100	> 100	> 100	> 100											
CCc1nc2ccc(NCCN(C)C)c3c(=O)c4ccccc4n1c23	6.26	8.06	4.34	15.1	21.1	2.4	4.76	11	5.8	6.03	5.36									
Cc1nc2ccccc2c(/C=C/c2ccc(Cl)cc2)c1C(=O)/C=C/c1ccc(Cl)cc1		3.27	3.29	> 100					3	3		1.59	1.59	1.52	0.605	1.53				
Cc1ccccc1NC(=O)Cc1csc2[n+]1C(=O)/C(=C/c1ccc([N+](=O)[O-])cc1)S2	> 100		> 100		> 100	> 100	> 100		> 100											
C/C1=C\C=C(\C(C)C)CC/C(C(=O)O)=C\CC/C(C)=C/CC1	29.8	25.8	43.3	41.8	34.8	56.4	> 100	34.1	33.8	41.4	> 100									
COc1cc2nc(-c3cccs3)[nH]c(=O)c2cc1OC	> 100	> 100	> 100	> 100	> 100	> 100	> 100	> 100		> 100	> 100									
CCc1ccccc1NNc1cc(=O)[nH]c(=O)[nH]1	31.1	35.9	35	82.8	39.1	34.1	57.3	45.8	40.1	40.1										
CCOC(=O)N(c1ccccc1)N(CC)C(=O)/C(C)=N/Nc1ccc([N+](=O)[O-])cc1	27.1	26.8	37.5	42			33.9	28	32.5	26.2	34.1									
CCOC(=O)C1=COC(C)(CCc2ccccc2)CC1=O (stereo unspecified)	> 100	> 100			> 100	> 100	> 100	> 100		> 100	> 100									
O=c1cnn(CCOCP(=O)(O)O)c(=O)[nH]1			> 100	> 100	> 100	> 100	> 100	> 100	> 100	> 100	> 100									
COc1cc(N(Cc2ccc3oc(=O)c(-c4ccccc4)nc3c2)Cc2ccc3oc(=O)c(-c4ccccc4)nc3c2)cc(OC)c1OC	> 10	> 10	> 10	> 10	> 10	> 10	> 10		> 10	> 10	> 10									
C[C@H]1S[C@H](c2c(Cl)cccc2Cl)N2Cc3ccccc3N=C12	16.3	26.1		> 100	42.1	> 100	40.3	66	29.5	30.4	32.5									
CC(=O)Oc1ccc(/C=C/C(=O)O[C@@H](C(=O)O)[C@@H](OC(=O)/C=C/c2ccc(OC(C)=O)c(OC(C)=O)c2)C(=O)O)cc1OC(C)=O	> 100	> 100		> 100	> 100	> 100	> 100	> 100	> 100	> 100	> 100									
Fc1cccc(F)c1C1SCc2nc3ccc(Cl)cc3n21 (stereo unspecified)	> 100	> 100		> 100	> 100	> 100	> 100		> 100	> 100	> 100									
COc1ccc(-n2sc3ncccc3c2=O)cc1	32.6	> 100	> 100	> 100	49.1	66.7	> 100		> 100		58.3									
Cn1c(N/N=C/c2ccccc2)nc(-c2ccc([N+](=O)[O-])cc2)c(C#N)c1=O	> 100	97.5		> 100	> 100	> 100	> 100	> 100		> 100	> 100									
C(=C\N1CCCCC1)/c1nnnn1-c1ccccc1	> 100	54.5	> 100	61.1		66.1	> 100	> 100	> 100	56.6	84									
COC(OC)[C@@H]1OC[C@@H](O)[C@@H]1n1cnc2c(N)ncnc21	> 100	> 100	> 100	> 100	> 100	> 100		> 100	> 100	> 100	> 100									
S=C(Nc1ccc2cn[nH]c2c1)Nc1ccc2cn[nH]c2c1	> 100	> 100	> 100		> 100	> 100	> 100	> 100	> 100	> 100	> 100									
C[C@H](C/C=C/C(C)(C)O)[C@H]1CC[C@@]2(C)[C@@H]3CC[C@H]4C(C)(C)[C@@H](O)CC[C@@]45C[C@@]35CC[C@]12C	37.1	56	38.5		> 100	50.7	31	40.8			19.6									
NNC(=O)c1cc(=O)[nH][nH]1	> 100	> 100	> 100	> 100	> 100	> 100	> 100			> 100	> 100									
N#C[C@H](c1nc2ccccc2s1)c1nc2ccccc2nc1Cl	> 100	31.4	> 100	> 100	24.8	> 100	> 100	> 100	7.09	32										

SMILES	TGI (HCT-116 colon) [µM]	TGI (UACC-62 melanoma) [µM]	TGI (NCI-H226 lung) [µM]	TGI (CCRF-CEM leukemia) [µM]	TGI (MCF7 breast) [µM]	TGI (MDA-MB-435) [µM]	TGI (A549 NSCLC) [µM]	TGI (A498 renal) [µM]	TGI (HCC-2998 colon) [µM]	TGI (RXF 393 renal) [µM]	TGI (SF-268 CNS) [µM]	GI50 (UACC-62 melanoma) [µM]	GI50 (NCI-H226 lung) [µM]	GI50 (RXF 393 renal) [µM]	GI50 (CCRF-CEM leukemia) [µM]	GI50 (HCC-2998 colon) [µM]	GI50 (MDA-MB-435) [µM]	GI50 (A549 NSCLC) [µM]	GI50 (A498 renal) [µM]	GI50 (SF-268 CNS) [µM]
COc1ccc2oc(=O)c(-c3csc(C)n3)cc2c1	> 100	73.1	89.1	> 100	> 100	> 100	> 100		> 100	> 100	50.3									
O=C(OCC(Cl)(Cl)Cl)O[C@@H]1CCCC1(c1ccccc1)c1ccccc1	> 100	> 100	> 100	> 100	> 100	> 100	> 100		> 100	> 100	> 100									
CCN(CC)c1ccc2cc(C(=O)Nc3ccccn3)c(=N)oc2c1	> 100	> 100	> 100	> 100		> 100	> 100	> 100	> 100	> 100	> 100									
CC1(C)CC(=O)C2=C(C1)OC1=C(CC(C)(C)CC1=O)C2c1ccccc1[N+](=O)[O-] (stereo unspecified)	> 100	> 100	> 100	> 100		> 100	> 100	> 100	> 100	> 100	> 100									
C[C@@H]1S[C@H](c2c(Cl)cccc2Cl)N2Cc3ccccc3N=C12	> 100	> 100		> 100	> 100	> 100	> 100	> 100	> 100	> 100	> 100									
COC(=O)c1ccc(Nc2nc3nc[nH]c3c(=O)[nH]2)cc1	> 100	> 100	> 100	> 100	> 100	> 100	> 100	> 100	> 100		> 100									
COc1ccccc1C[C@@H]1OC2(C=CC(=O)C=C2)O[C@H]1Cc1ccccc1OC	2.32	23.2	16.8	8.6	17.6	38.2	> 50	49.9		3.81	16.9									
CCCC(CCN)(CCN)[N+](=O)[O-]	> 100	> 100	> 100	> 100		> 100	> 100	> 100		> 100	> 100									
CCOC(=O)C1=C(C)N(c2ccc(OC)cc2)C2(O)C=CC(=O)C3=C(O)c4ccccc4C(=O)C312 (stereo unspecified)	23.4	26.4		15.9	19.2	18.7	36.2	27			9.82									
O=C(CCc1ccccc1)ON1C(=S)C(c2ccccc2)(c2ccccc2)N=C1Sc1ccccc1	> 100	> 100	> 100	> 100	> 100		> 100	> 100	> 100	> 100	> 100									
COc1ccc(C(OCC2OC(n3ccc(NC(=O)c4ccccc4)nc3=O)CC2OP2(=S)SCCS2)(c2ccccc2)c2ccc(OC)cc2)cc1 (stereo unspecified)	> 100	34.9	67.4		> 100	> 100	> 100			88.1	44.1									
CC(C)C1N(C)c2ccc(Cl)cc2[C@H]2c3ccccc3CCN12 (stereo partly specified)	> 100	> 100	67.9	> 100	> 100	61.6	> 100	> 100		> 100	> 100									
CC(=O)N(O)c1ccc(-c2nc3ccccc3s2)cc1	> 100	> 100	73.2	> 100		> 100	> 100	> 100	> 100	> 100	> 100									
N#C/C(=C/NC(=S)c1ccncc1)C(N)=O	> 100	> 100	> 100		> 100	> 100	> 100	> 100	> 100	> 100	> 100									
COc1cc(C2c3cc4c(cc3OC(NCCO)C2C)OCO4)cc(OC)c1OC (stereo unspecified)	> 100	> 100	9.84		> 100	0.463	> 100	2.81	> 23.2	> 100	> 84.9									
CC1C(c2ccc(Cl)cc2)c2cc3c(cc2OC1N1CCOCC1)OCO3 (stereo unspecified)	> 100	> 100		> 100	> 100	> 100	> 100		> 100		> 100									
C=CCOCn1cc(C)c(=O)[nH]c1=O	> 100	> 100	> 100	> 100	> 100	> 100	> 100	> 100	> 100		> 100									
Clc1ccc(OCc2nn3c(CCc4nnc5sc(COc6ccc(Cl)cc6)nn45)nnc3s2)cc1	85.4		> 100	> 100	92.8	> 100		42.8		61.2	> 100									
COc1ccc2c(OCc3nnc4ccc(-c5ccccc5)nn34)ccnc2c1		> 100		> 100		> 100	> 100	> 100	> 100		> 100	> 100			> 58.1	> 100	> 100	> 100	> 100	> 100
CC1=NC(=Cc2ccc([N+](=O)[O-])cc2)C(=O)N1n1c(-c2ccccc2)nc2ccccc2c1=O	> 100	> 100	> 100	> 100	> 100	> 100	> 100		> 100		> 100									
COc1cc(-c2ccccc2N)c2cccnc2c1OC	11.9	24.2	26.6	22.5	18.3	21.1	16.1	27.2		34.6	12.8									
